Laboratory results from paper PMC10961402, “Safety, tolerability, pharmacokinetics and pharmacokinetic-pharmacodynamic modeling of cetagliptin in patients with type 2 diabetes mellitus” (Frontiers in Endocrinology, 2024).
Like-named read-outs stand apart in the source and are kept apart here.

Tests used:
Format in all cases: in vivo, human
plasma active GLP-1 = assay: Plasma active GLP-1 concentration change from baseline (ELISA); conditions: patients with T2DM
Procedure: Blood samples for GLP-1 activity evaluation were collected at the same time points as for PK. 2 mL blood samples were collected for GLP-1 activity detection (20 μL DPP-4i was added to blood-collecting tubes beforehand). The tubes were placed on ice until centrifugation. The blood samples were centrifuged at 2-8°C, 1500 g for 10 minutes within 1 hour after blood collection. After centrifugation, the blood samples were evenly divided into two aliquots and stored at -80 ± 10°C. Plasma active GLP-1 concentrations were determined using a validated ELISA method. Linear calibration curves were obtained in the concentration range of 0.017-276 pM ([31]).
The change of GLP-1 concentration from baseline (△GLP-1) was calculated as follows:
Δ [GLP-1] = [GLP-1] (t) - [GLP-1] (0)
The calculated parameters for GLP-1 activity were as follows: the baseline GLP-1 value before dosing (Baseline), Rmax, TRmax, AUEC0-t, AUEC0-24h, GLP-1 concentration change at 2 h after lunch (△GLP-1-6h), GLP-1 concentration change at 2 h after dinner (△GLP-1-12h), Rmin on day 14, and the average response on day 14 (Ravg).

[1] = Plasma pharmacokinetics after single and multiple oral doses (non-compartmental analysis); conditions: patients with T2DM; for AUC(0-t): po, 100 mg
Procedure: This was a single-center, randomized, double-blind, placebo and positive-controlled, single and multiple oral-dose study. A total of 32 Chinese adults diagnosed with T2DM were recruited for this study and allocated into two dosage groups: 50 mg and 100 mg, each consisting of 16 participants. […] The positive control was designed as open label. […] Subjects underwent medication randomization on day -1, and were assigned the corresponding investigational products. They were orally administered to the drug once every morning on fasting condition for 14 consecutive days. […] After finished the dosing, another OGTT was performed on day 15. Blood samples were collected at designated time points for the analysis of PK/PD and exploratory indicators. Subjects were discharged after completion of the safety assessments on day 19. […] PK parameters were calculated using non-compartmental analysis with Phoenix WinNonlin (version 8.1, Certara, Co., Princeton, NJ, United States). Peak plasma concentration after administration (Cmax) and time to reach Cmax (Tmax) were obtained directly from the observed data, elimination half-life (t1/2) was calculated as ln2/λz using the best fit mode, where λz was the terminal elimination rate constant. Area under the plasma concentration-time curve from zero to the last measurable concentration (AUC0-t) was estimated using the linear trapezoidal method and AUC from zero to infinity (AUC0-∞) was calculated as AUC0-t+Ct/λz, where Ct was the last measured concentration. […] Apparent total plasma clearance after non-intravenous (CL/F) and apparent volume of distribution in terminal phase after non-intravenous (Vz/F) were calculated as Dose/AUC0-∞ and CL/λz, respectively.

[2] = Preliminary efficacy evaluation (FPG, 2 h PPG, HbA1c, GA); conditions: patients with T2DM; 100 mg once daily; day 14
Procedure: Blood samples for determination of fasting plasma glucose (FPG) and 2 hour postprandial plasma glucose (2 h PPG) were collected on day -2, day 7 and day 14. Additionally, blood samples for determination of glycated Hemoglobin A1C (HbA1c) and glycated Albumin (GA) were collected on day -2 and day 14. The changes of the above indexes relative to pre-treatment baseline (day -2) were evaluated and compared to investigate the preliminary efficacy of investigational product.

[3] = tested on: glucose, insulin, C-peptide, and glucagon; assay: Oral glucose tolerance test (OGTT): glucose, insulin, C-peptide, glucagon; conditions: patients with T2DM
Procedure: To assess the impact of investigational products on glucose, insulin, C-peptide, and glucagon, OGTT tests were conducted on day -1 and day 15 following a fasting period of more than 8 hours. Subjects received a 75 g oral glucose dose and blood samples (1.5 mL for glucose, 3.5 mL for insulin and C-peptide, 2 mL for glucagon) were collected at 0, 0.167, 0.5, 1, 1.5, 2, and 3 h after ingestion of glucose. The PD parameters (AUEC0-t) for glucose, insulin, C-peptide, and glucagon were calculated by using drug effect module of non-compartmental method with Phoenix WinNonlin.

[4] = Safety and tolerability assessments (adverse events); conditions: patients with T2DM, 14 days
Procedure: Safety and tolerability were evaluated by monitoring adverse events (AEs), laboratory tests (including blood routine, urine routine, stool routine, blood biochemical test and coagulation function), vital signs, physical examination, 12-lead electrocardiogram and other indicators. AEs were monitored and collected throughout the study. Descriptive analysis of the type and intensity of AEs were conducted according to NCICTC AE5.0.

[5] = 100 mg oral once daily, day 14, median (range)
[6] = cetagliptin group (50 or 100 mg, n=20) / sitagliptin group (100 mg, n=8)

N[C@@H](CC(=O)N1CCn2c(nnc2C(F)(F)F)C1)Cc1cc(F)c(F)cc1F [Sitagliptin, sitagliptin, reference compound]
GLP-1 Baseline (value before dosing) (plasma active GLP-1; 100 mg group, day 1 before dosing): 0.442 ± 0.406 pM
R0h,ss (baseline plasma active GLP-1 on day 14) (plasma active GLP-1; 100 mg oral once daily, day 14): 1.700 ± 0.851 pM
△GLP-1-6h (change at 2 h after lunch) (plasma active GLP-1; 100 mg oral once daily, day 14): 6.553 ± 3.739 pM
△GLP-1-12h (change at 2 h after dinner) (plasma active GLP-1; 100 mg oral once daily, day 14): 5.775 ± 4.299 pM
△GLP-1 Ravg,ss (plasma active GLP-1; 100 mg oral once daily, day 14): 3.821 ± 2.361 pM
△GLP-1 Rmax,ss (plasma active GLP-1; 100 mg oral once daily, day 14): 8.080 ± 3.592 pM
R0h,ss (baseline plasma active GLP-1 on day 14) (plasma active GLP-1; 100 mg oral once daily, day 14, listed as sitagliptin): 1.700 pM
△GLP-1 TRmax,ss (plasma active GLP-1; [5]): 5.00 (5.00-6.00) h
△GLP-1-6h (change at 2 h after lunch) (plasma active GLP-1; 100 mg oral, day 1): 3.491 ± 1.703 pM
△GLP-1-12h (change at 2 h after dinner) (plasma active GLP-1; 100 mg oral, day 1): 3.764 ± 2.490 pM
△GLP-1 AUEC0-24h (plasma active GLP-1; 100 mg oral, day 1): 61.2 ± 28.6 pM·h
△GLP-1 Rmax (plasma active GLP-1; 100 mg oral, day 1): 5.901 ± 2.375 pM
△GLP-1 TRmax (plasma active GLP-1; 100 mg oral, day 1, median (range)): 7.00 (5.00-12.00) h
half-life ([1]; human, in vivo, 100 mg oral once daily, day 14): 9.12 ± 0.664 h
AUC(0-t) ([1]; human, plasma, 100 mg oral once daily, day 14, read-out: AUC0-24h): 3760 ± 748 ng·h/mL
AUC(0-t) ([1]; human, plasma, 100 mg oral once daily, day 14, read-out: AUC0-t): 4290 ± 783 ng·h/mL
AUC(0-t) ([1]; human, plasma, 100 mg oral, day 1, read-out: AUC0-24h): 3340 ± 522 ng·h/mL
AUC(0-inf) ([1]; human, plasma, 100 mg oral once daily, day 14): 4380 ± 789 ng·h/mL
Cmax ([1]; human, plasma, 100 mg oral once daily, day 14, read-out: Cmax,ss): 419 ± 137 ng/mL
Vd/F ([1]; human, plasma, 100 mg oral once daily, day 14, read-out: Vz,ss/F): 362 ± 75.9 L
Tmax ([1]; human, plasma, 100 mg oral, day 1, median (range), read-out: Tmax): 1.5 h
CLss/F ([1]; 100 mg oral once daily, day 14): 27.5 ± 5.12 L/h
Cavg ([1]; 100 mg oral once daily, day 14): 157 ± 31.2 ng/mL
Tmax,ss [1, 5]: 3.00 (0.500-5.00) h
Cmax ([1]; 100 mg oral, day 1): 394 ± 105 ng/mL
time of daily dosing after which steady-state conditions were reached ([1]; once daily dosing, trough concentrations days 7, 10, 14): 1 week
decrease of HbA1c compared with baseline [2]: 0.44%
glucose AUEC0-t (OGTT) ([3]; 100 mg group, day -1 (baseline before dosing)): 44.07 ± 5.74 mmol·h/L
glucose AUEC0-t (OGTT) ([3]; day 15 after 100 mg once daily for 14 days): 43.40 ± 6.51 mmol·h/L
intensity of drug-related adverse events ([4]; cetagliptin 50 or 100 mg, sitagliptin 100 mg): mild
number of drug-related AEs [4, 6]: 7 AEs
number of subjects reporting drug-related AEs [4, 6]: 3 subjects
